What all share (assay type): cell-based
The test system of one test is Actinomyces oris. Put plainly: Bacterial growth of Actinomyces oris in the presence of polyols. The settings on record: aerobic conditions, FIG. 6. Here is the method:
(§1) The growth of these strains was then measured in the presence of isosorbide, maltitol, xylitol, allulose, sorbitol powder and dextrose monohydrate in an unrefreshed culture medium, incubated at 37° C. for 48 hours or 72 hours under aerobic or anaerobic conditions. The growths were measured by bacterial counting on solid medium. The results are expressed in Log 10 (CFU/ml). The culture media used are the Bacto Brain Heart Infusion (ref. 237500-BD (BHI)) and Difco™ Brain Heart Infusion Agar (ref. 241830-BD (BHIa)) culture media.

The subject of test [1] is Streptococcus mutans. Put plainly: Bacterial growth of Streptococcus mutans strain from a healthy tooth, in the presence of polyols, counting on solid medium. The settings on record: aerobic conditions, FIG. 1. As for the experimental part:
as §1

Test [2] has as its system Streptococcus mutans. Put plainly: Bacterial growth and biofilm of Streptococcus mutans strain from a decayed tooth, in the presence of polyols. The settings on record: FIG. 2. Here is the method:
The growth of these strains was then measured in the presence of isosorbide, maltitol, xylitol, allulose, sorbitol powder and dextrose monohydrate in an unrefreshed culture medium, […] conditions. The growths were measured by bacterial counting on solid medium. The results are expressed in Log 10 (CFU/ml). The culture media used are the Bacto Brain Heart Infusion (ref. 237500-BD (BHI)) and Difco™ Brain Heart Infusion Agar (ref. 241830-BD (BHIa)) culture media.

For another test, the system named is Lactobacillus gasseri. Put plainly: Bacterial growth of Lactobacillus gasseri in the presence of polyols. The settings on record: anaerobic conditions, FIG. 3. Here is the method:
as §1

The test system of the next test is Actinomyces naeslundii. Nature of the test: Bacterial growth of Actinomyces naeslundii in the presence of polyols. The settings on record: for bacterial population: FIG. 4 as printed. As for the experimental part: as §1
The test system of another test is oral bacterial strains. Put plainly: Growth of the oral bacterial strains overall (summary of all strains tested). Here is the method:
as §1

SMILES strings stand for the structures.

With `O=C(CO)C(O)C(O)C(O)CO` (stereo not shown) [allulose], the bacterial growth entry with Actinomyces oris is reported as “slowed relative to the other polyols tested”.

With `O[C@@H]1CO[C@H]2[C@@H]1OC[C@@H]2O` [isosorbide, 1,4:3,6-dianhydrosorbitol], the “bacterial population after 24 hours” value in the test on Streptococcus mutans [1] is given as “declines slightly”. For the same compound, the figures for the “kind of effect on the bacterial population” value in the test with Streptococcus mutans [1] and with Actinomyces naeslundii (anaerobic conditions) were “bacteriostatic effect” and “bactericidal effect”, respectively. In addition, the bacterial growth result is listed as “remain absent” in the test with Streptococcus mutans [1] (T=24 hours); “varies little” in the test on Streptococcus mutans [2] (anaerobic conditions); “Very slowed growth” in the test on Streptococcus mutans [2] (strain from a decayed tooth); “remains absent” with Lactobacillus gasseri (T=24 hours); “remains low relative to the other polyols” with Actinomyces naeslundii (aerobic conditions, FIG. 5); “decreases greatly over time in the presence of isosorbide, then stabilizes after 24 hours” in the test on Actinomyces oris. Moreover, the biofilm formed entry in the test with Streptococcus mutans [2] (anaerobic conditions, after 96 hours of incubation) was “biofilm formed in the absence of isosorbide is much more pronounced than in the presence of isosorbide”. Further, the “kind of effect, populations beyond 24 hours” value with Lactobacillus gasseri (beyond 24 hours) is given as “inhibitory effect”. For the same compound, the “bacterial population from T=40 hours” value in the test on Actinomyces naeslundii (aerobic conditions, from T=40 hours, FIG. 5) is reported as “substantial decrease”. Further, the bacterial population entry in the test on Actinomyces naeslundii (anaerobic conditions) is listed as “falls constantly until it disappears completely”. Besides, the “growth of the bacterial strains, all cases” value with oral bacterial strains (all strains and conditions tested) is recorded as “very significant decrease”. For the same compound, in the test on oral bacterial strains (comparison with polyols of commercial toothpastes), the “level of performance relative to xylitol or sorbitol” value was “even higher than that observed with xylitol or sorbitol”.

For `OC[C@@H](O)[C@H](O)[C@@H](O)CO` [xylitol, reference compound], the bacterial growth entry was “appears to further curb the bacterial growth than the other polyols tested” in the test on Actinomyces naeslundii (aerobic conditions, FIG. 5) and “slowed relative to the other polyols tested” in the test with Actinomyces oris. Further, the bacterial population entry with Actinomyces naeslundii (anaerobic conditions) is reported as “remains stable”.

(Values after US12226507B2, “Use of dianhydrohexitol in oral and dental care to reduce the development of bacterial strains” (ROQUETTE FRERES, priority 2017, dated 2025).)
